Results as given in the NIST ThermoML archive (doi:10.1021/je900550v).
± gives the expanded uncertainty stated by the source.

Settings: 101.33 kPa, Liquid; for speed of sound: Pulse-echo method; for mass density: Vibrating tube method

CC(C)C(=O)[O-].C[NH2+]CCO [2-hydroxy-N-methylethanaminium isobutyrate]
Settings	mass density [kg/m3]	speed of sound [m/s]	viscosity [mPa·s]
293.15 K	1046.53 ± 2.2	1625.5 ± 2.1	–
293.4 K	1046.37 ± 2.2	1624.8 ± 2.1	–
293.65 K	1046.21 ± 2.2	1624.1 ± 2.1	–
293.9 K	1046.06 ± 2.2	1623.4 ± 2.1	–
294.15 K	1045.9 ± 2.2	1622.7 ± 2.1	–
294.4 K	1045.74 ± 2.2	1622 ± 2.1	–
294.65 K	1045.59 ± 2.2	1621.2 ± 2.1	–
294.9 K	1045.43 ± 2.2	1620.5 ± 2.1	–
295.15 K	1045.27 ± 2.2	1619.8 ± 2.1	–
295.4 K	1045.11 ± 2.2	1619.1 ± 2.1	–
295.65 K	1044.96 ± 2.2	1618.4 ± 2.1	–
295.9 K	1044.8 ± 2.2	1617.7 ± 2.1	–
296.15 K	1044.63 ± 2.2	1617 ± 2.1	–
296.4 K	1044.48 ± 2.2	1616.3 ± 2.1	–
296.65 K	1044.32 ± 2.2	1615.6 ± 2.1	–
296.9 K	1044.17 ± 2.2	1614.9 ± 2.1	–
297.15 K	1044.01 ± 2.2	1614.2 ± 2.1	–
297.4 K	1043.84 ± 2.2	1613.4 ± 2.1	–
297.65 K	1043.68 ± 2.2	1612.7 ± 2.1	–
297.9 K	1043.52 ± 2.2	1612 ± 2.1	–
298.15 K	1043.37 ± 2.2	1611.3 ± 2.1	163.08 ± 13
298.4 K	1043.2 ± 2.2	1610.6 ± 2.1	–
298.65 K	1043.05 ± 2.2	1609.9 ± 2.1	–
298.9 K	1042.89 ± 2.2	1609.2 ± 2.1	–
299.15 K	1042.73 ± 2.2	1608.5 ± 2.1	–
299.4 K	1042.57 ± 2.2	1607.8 ± 2.1	–
299.65 K	1042.41 ± 2.2	1607.1 ± 2.1	–
299.9 K	1042.25 ± 2.2	1606.3 ± 2.1	–
300.15 K	1042.09 ± 2.2	1605.6 ± 2.1	–
300.4 K	1041.93 ± 2.2	1604.9 ± 2.1	–
300.65 K	1041.77 ± 2.2	1604.2 ± 2.1	–
300.9 K	1041.61 ± 2.2	1603.5 ± 2.1	–
301.15 K	1041.45 ± 2.2	1602.8 ± 2.1	–
301.4 K	1041.29 ± 2.2	1602.1 ± 2.1	–
301.65 K	1041.13 ± 2.2	1601.4 ± 2.1	–
301.9 K	1040.96 ± 2.2	1600.7 ± 2.1	–
302.15 K	1040.81 ± 2.2	1600 ± 2.1	–
302.4 K	1040.64 ± 2.2	1599.3 ± 2.1	–
302.65 K	1040.49 ± 2.2	1598.6 ± 2.1	–
302.9 K	1040.32 ± 2.2	1597.8 ± 2.1	–
303.15 K	1040.17 ± 2.2	1597.2 ± 2.1	124.67 ± 8
303.4 K	1040 ± 2.2	1596.4 ± 2.1	–
303.65 K	1039.84 ± 2.2	1595.7 ± 2.1	–
303.9 K	1039.68 ± 2.2	1595 ± 2.1	–
304.15 K	1039.52 ± 2.2	1594.3 ± 2.1	–
304.4 K	1039.36 ± 2.2	1593.6 ± 2.1	–
304.65 K	1039.19 ± 2.2	1592.9 ± 2.1	–
304.91 K	1039.03 ± 2.2	1592.2 ± 2.1	–
305.15 K	1038.87 ± 2.2	1591.5 ± 2.1	–
305.4 K	1038.71 ± 2.2	1590.8 ± 2.1	–
305.65 K	1038.55 ± 2.2	1590.1 ± 2.1	–
305.9 K	1038.39 ± 2.2	1589.4 ± 2.1	–
306.15 K	1038.23 ± 2.2	1588.7 ± 2.1	–
306.4 K	1038.06 ± 2.2	1588 ± 2.1	–
306.65 K	1037.9 ± 2.2	1587.3 ± 2.1	–
306.9 K	1037.74 ± 2.2	1586.6 ± 2.1	–
307.15 K	1037.58 ± 2.2	1585.9 ± 2.1	–
307.4 K	1037.41 ± 2.2	1585.2 ± 2.1	–
307.65 K	1037.25 ± 2.2	1584.5 ± 2.1	–
307.9 K	1037.09 ± 2.2	1583.8 ± 2.1	–
308.15 K	–	–	98.28 ± 4.8
